Reference: patent US20230404887A1, “COMPOSITIONS TO LIMIT OR ELIMINATE THE PERCEPTION OF SWEAT MALODOR” (Firmenich SA, priority 2020, published 2023)

What was measured:
[1] = Expert perfumer evaluation of malodor reduction, dynamic olfactometer, against 3H3MHA; set-up: species or system human; key to EXPERT RATING: −2: significant increase in malodor; −1: slight increase in malodor; 0: no effect; 1: slight malodor reduction; 2: good malodor reduction; 3: complete malodor reduction; details: for EFFECTIVE CONCENTRATION: MO 3H3MHA held fixed at mid-intensity (0.5), headspace concentration providing an effective level; for EXPERT RATING: MO 3H3MHA held fixed at mid-intensity (0.5 on scale 0-1), rating of degree of malodor reduction at the effective concentration
Experimental: The effectiveness of perfuming materials in compositions to reduce the perception of, for example, axillary sweat malodors, was evaluated by an expert perfumer by 1) selecting target axillary malodor components, 2) delivering target malodor components and candidate malodor reducing materials to the nose of an expert perfumer at carefully controlled concentrations, 3) having the expert perfumer identify the concentration at which malodor reduction was obtained, and 4) rating the degree of reduction achieved at the concentration identified in step 3. […] Two surprising results were be observed. The first is that not all tested materials yielded complete malodor reduction, often differing depending on which component they were tested against. […] Intensity and concentration were material-dependent and spanned a wide range of values on both axes. […] Thus, neither the required concentrations, nor performance ratings could be predicted a priori by one skilled in the art, yet are necessary and sufficient for designing malodor reducing compositions for use in perfuming products.
(§1) In this method, a dynamic multi-channel olfactometer was used to precisely deliver known gas phase concentrations of the test materials, using forced evaporation, into a stream of air emanating from a smelling port. The appropriate concentration of the malodor component was established prior to its being mixed with the candidate malodor reducing substance. The concentration was set at a concentration sufficient to produce an intensity of 0.5 (mid-intensity) on a scale of 0-1. The expert perfumer then dynamically adjusted the concentration of the candidate malodor reducing substance to determine the effective concentration, while maintaining a fixed concentration of the malodor component. Once the appropriate concentration had been determined, the expert perfumer evaluated the perception of the mixtures repeatedly over a period of several minutes, taking breaks in between sniffs to avoid adaptation to the components being tested, before providing a rating.
(§2) Tests were performed in a forced-evaporation, dynamic olfactometer, with malodor component concentrations held fixed at a mid-intensity. Ratings of effectiveness were based in the following scale: −2 (significant increase in malodor), −1 (slight increase in malodor), 0 (no effect), 1 (slight malodor reduction), 2 (good malodor reduction), 3 (complete malodor reduction). The malodor (MO) component abbreviations are 3H3MHA (3-methyl-3-hydroxyhexanoic acid), 3M2HA (3-methyl-2-hexenoic acid), 3M3SH (3-methyl-3-sulphanylhexanol).

[2] = Expert perfumer evaluation of malodor reduction, dynamic olfactometer, against 3M2HA; set-up: species or system human; details: for EFFECTIVE CONCENTRATION: MO 3M2HA held fixed at mid-intensity (0.5), headspace concentration providing an effective level; for EXPERT RATING: MO 3M2HA held fixed at mid-intensity (0.5 on scale 0-1), rating of degree of malodor reduction at the effective concentration
Experimental: (§3) The effectiveness of perfuming materials in compositions to reduce the perception of, for example, axillary sweat malodors, was evaluated by an expert perfumer by 1) selecting target axillary malodor components, 2) delivering target malodor components and candidate malodor reducing materials to the nose of an expert perfumer at carefully controlled concentrations, 3) having the expert perfumer identify the concentration at which malodor reduction was obtained, and 4) rating the degree of reduction achieved at the concentration identified in step 3.
as §1, §2

[3] = Expert perfumer evaluation of malodor reduction, dynamic olfactometer, against 3M3SH; set-up: species or system human; details: for EFFECTIVE CONCENTRATION: MO 3M3SH held fixed at mid-intensity (0.5), headspace concentration providing an effective level; for EXPERT RATING: MO 3M3SH held fixed at mid-intensity (0.5 on scale 0-1), rating of degree of malodor reduction at the effective concentration
Experimental: as §3, §1, §2

[4] = Naive panelist evaluation of malodor reduction at mid-intensity dosages, passive evaporation in jars, against 4MOA; set-up: species or system human; details: MO 4MOA dosage 7.5%, test compound dosage 1.5% in DiPG on cellulose pads; jar equilibrated 4 hours at room temperature; N 26 panelists
Experimental: The performance of fragrancing products was evaluated by non-expert consumers under passive evaporation conditions. This was achieved by: 1) selecting target axillary malodor components, 2) delivering target malodor components and candidate malodor reducing materials (separately) to the noses of naïve panelists at a range of dosages established under passive evaporation conditions 3) having the panelists evaluate the overall intensity of each presented sample, 4) determining the average mid-intensity concentration for both the malodors and malodor reducing candidates of interest, 5) delivering samples containing a malodor component and a malodor reducing candidate of interest mixed together at the dosages determined in step 4, along with separate control samples containing either alone or neither, to the noses of panelists, 6) having panelists evaluate the malodor intensity for each presented sample, and 7) determining the degree of malodor reduction produced by the candidate malodor reducing material by comparing the malodor intensity ratings of the mixture to those of the control samples. […]

| Compound | EFFECTIVE CONCENTRATION [1] [micrograms/L AIR] | EXPERT RATING [1] | EFFECTIVE CONCENTRATION [2] [micrograms/L AIR] | EXPERT RATING [2] | EFFECTIVE CONCENTRATION [3] [micrograms/L AIR] | EXPERT RATING [3] | Reduction (%) [4] [%] |
| --- | --- | --- | --- | --- | --- | --- | --- |
| CC(=O)c1ccc2ccccc2c1 | 1.37E−02 | 3 | 1.37E−02 | 3 | 3.42E−02 | 2 |  |
| 1-(3,3/5,5-dimethyl-1-cyclohexen-1-yl)-4-penten-1-one | 1.22E+00 | 3 | 2.53E−03 | 3 | 1.22E+00 | 3 |  |
| CC(C)=CCCC(C)CC=O (racemic) | 1.30E−01 | 3 | 1.30E−01 | 2 |  |  |  |
| C/C=C/C(=O)C1C(C)=CCCC1(C)C (racemic) | 1.08E−02 | 3 | 1.30E−02 | 2 |  |  |  |
| Cc1ccc2c(c1)CC(C)(CO)C2 (racemic) | 3.13E−02 | 3 | 4.70E−02 | 3 | 7.83E−02 | 3 |  |
| C=C1CCCC(C)(C)C1C(=O)OC (racemic) [(+−)-METHYL 2,2-DIMETHYL-6-METHYLIDENECYCLOHEXANECARBOXYLATE] | 8.00E−01 | 3 | 4.00E−01 | 3 | 4.00E−01 | 2 |  |
| CCOC(=O)[C@@H]1[C@@H](C(C)C)[C@@H]2C=C[C@H]1C2 (racemic) [ETHYL 1RS,2SR,3SR,4SR-3-ISOPROPYLBICYCLO[2.2.1]HEPT-5-ENE-2-CARBOXYLATE] | 1.03E+00 | 3 | 2.58E+00 | 2 | 2.07E+01 | 3 |  |
| CCCCC[C@H]1C(=O)CC[C@@H]1CC(=O)OC (racemic) [METHYL 2-((1RS,2RS)-3-OXO-2-PENTYLCYCLOPENTYL)ACETATE] | 5.73E−01 | 3 | 7.17E−01 | 2 | 7.17E−01 | 2 |  |
| c1ccc(CCCc2ccccn2)cc1 [2-(3-PHENYLPROPYL)PYRIDINE] | 1.43E−04 | 3 | 1.43E−04 | 3 |  |  |  |
| CC/C=C\CC/C=C/C=O [(2E,6Z)-2,6-NONADIENAL] | 1.13E−03 | 3 | 2.83E−03 | 3 | 5.67E−04 | 3 |  |
| C[C@@H]1C/C=C\CCCCCCCCCC(=O)C1 [(+)-(3R,5Z)-3-METHYL-5-CYCLOPENTADECEN-1-ONE] | 5.50E−01 | 2 | 1.65E−01 | 2 | 2.75E−01 | 2 |  |
| C/C=C/c1ccc(OCC)c(O)c1 [(E)-2-ETHOXY-5-(1-PROPENYL)PHENOL] | 4.50E−03 | 3 | 1.80E−02 | 3 | 4.50E−02 | 3 |  |
| CCOC(=O)C12CCCC1C1CCC2C1 (stereo not shown) [ethyl tricyclo[5.2.1.0.(2,6)]decane-2-carboxylate] |  |  | 1.07E−01 | 3 |  |  | 43 |
| (+−)-(3E)-4-(2,6,6-trimethyl-1/2-cyclohexen-1-yl)-3-buten-2-one | 2.00E−01 | 3 | 4.00E−01 | 3 | 8.00E−01 | 2 |  |
| TRICYCLO[5.2.1.0(2,6)]DEC-3/4-EN-8-YL PROPANOATE |  |  | 7.08E−02 | 3 | 1.42E−01 | 2 |  |
